Results on 13 compounds are retold here after ChEMBL document CHEMBL4680161, “Design and synthesis of α-naphthoflavone chimera derivatives able to eliminate cytochrome P450 (CYP)1B1-mediated drug resistance via targeted CYP1B1 degradation” (Eur J Med Chem, 2020).

For series [1], the species on record is Homo sapiens. The experiment in a line: Selectivity ratio IC50 for inhibition of recombinant human CYP1A2 to inhibition of recombinant human CYP1B1.
In series [2] the target is T1, Cytochrome P450 1A2 (Homo sapiens, UniProt P05177).
T1 sequence (P05177 whole entry): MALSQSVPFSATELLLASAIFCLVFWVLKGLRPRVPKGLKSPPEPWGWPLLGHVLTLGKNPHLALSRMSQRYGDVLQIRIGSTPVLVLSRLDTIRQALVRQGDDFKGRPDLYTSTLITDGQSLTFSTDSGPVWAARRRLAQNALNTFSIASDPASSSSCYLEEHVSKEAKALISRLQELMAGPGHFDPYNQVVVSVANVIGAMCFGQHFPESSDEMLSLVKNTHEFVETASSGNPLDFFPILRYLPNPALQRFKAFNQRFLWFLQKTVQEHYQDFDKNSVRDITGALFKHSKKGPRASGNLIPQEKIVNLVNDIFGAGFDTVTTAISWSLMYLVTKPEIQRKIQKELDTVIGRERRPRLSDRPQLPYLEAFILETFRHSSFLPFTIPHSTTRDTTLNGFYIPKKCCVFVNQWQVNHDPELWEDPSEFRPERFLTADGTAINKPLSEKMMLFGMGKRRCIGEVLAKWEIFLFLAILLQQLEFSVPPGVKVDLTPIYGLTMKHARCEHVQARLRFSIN
As to the kind of experiment: Inhibition of recombinant human CYP1A2 expressed in baculovirus infected insect cells using 7-ethoxyresorufin as substrate preincubated for 5 mins followed by NADPH addition and measured after 35 mins by EROD assay. Format: ADME.

The target of series [3] is T2, Cytochrome P450 1B1 (Homo sapiens, UniProt Q16678).
T2 sequence (Q16678 whole entry): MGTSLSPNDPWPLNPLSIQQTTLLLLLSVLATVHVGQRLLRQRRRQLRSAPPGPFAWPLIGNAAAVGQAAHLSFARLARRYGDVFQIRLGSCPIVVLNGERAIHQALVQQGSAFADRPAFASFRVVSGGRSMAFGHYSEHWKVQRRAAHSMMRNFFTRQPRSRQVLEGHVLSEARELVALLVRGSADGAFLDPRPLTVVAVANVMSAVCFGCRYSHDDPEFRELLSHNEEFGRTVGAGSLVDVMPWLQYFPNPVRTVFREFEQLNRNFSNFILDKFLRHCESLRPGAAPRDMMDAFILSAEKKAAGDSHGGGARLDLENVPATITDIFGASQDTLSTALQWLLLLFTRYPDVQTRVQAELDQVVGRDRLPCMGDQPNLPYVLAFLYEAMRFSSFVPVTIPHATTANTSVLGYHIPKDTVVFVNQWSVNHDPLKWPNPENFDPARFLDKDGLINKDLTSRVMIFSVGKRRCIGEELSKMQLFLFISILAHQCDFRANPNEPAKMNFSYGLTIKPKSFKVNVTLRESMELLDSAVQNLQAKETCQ
As to the kind of experiment: Inhibition of recombinant human CYP1B1 expressed in baculovirus infected insect cells using 7-ethoxyresorufin as substrate preincubated for 5 mins followed by NADPH addition and measured after 15 mins by EROD assay.

For series [4], the target named is von Hippel-Lindau disease tumor suppressor/Cytochrome P450 1B1 (Homo sapiens, UniProt Q16678+P40337). The experiment in a line: Protac activity at E3 ubiquitin ligase/CYP1B1 (unknown origin) expressed in human DU145 cells assessed as induction of CYP1B1 degradation by immunoblotting analysis. The format is cell-based. The settings on record: du-145.
von Hippel-Lindau disease tumor suppressor/Cytochrome P450 1B1, sequence (P40337 whole entry, one chain of several): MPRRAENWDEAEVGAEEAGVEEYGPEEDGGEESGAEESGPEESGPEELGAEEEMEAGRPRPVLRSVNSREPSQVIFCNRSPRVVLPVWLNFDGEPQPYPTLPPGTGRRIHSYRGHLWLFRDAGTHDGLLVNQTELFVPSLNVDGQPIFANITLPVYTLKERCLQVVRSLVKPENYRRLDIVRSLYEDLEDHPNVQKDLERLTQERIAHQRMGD
Series [5] is described as follows: Selectivity ratio of IC50 for cytotoxicity against human DU-145 cells over expressing CYP1B1 to cytotoxicity against human DU-145 cells. The format is functional.
For series [6], the system named is DU-145. The experiment in a line: Cytotoxicity against human DU-145 cells over expressing CYP1B1 assessed as reduction in cell viability after 48 hrs by MTT assay. The settings on record: DU-145, 48 h. The format is functional, cell-based.
The subject of series [7] is DU-145. As to the kind of experiment: Cytotoxicity against human DU-145 cells assessed as reduction in cell viability after 48 hrs by MTT assay. Format: functional, cell-based. To be noted: DU-145, 48 h.

Molecules are shown by their SMILES.

As for `C#Cc1ccc(-c2cc(=O)c3cc(OC)c4c(OC)ccc(OC)c4c3o2)cc1`, in series [1], the Ratio IC50 came to 422. The IC50 in series [2] was determined as 0.885 µM; in series [3] it was 0.0021 µM. In series [4], the Activity entry was “Not Active”.
Regarding `[N-]=[N+]=NCCCCCCOc1cccc2c1C(=O)N(C1CCC(=O)NC1=O)C2=O` (configuration not stated), the IC50 in series [2] and in series [3] was greater than 10 µM throughout.
Consider `COc1ccc(OC)c2c1c(OC)cc1c(=O)cc(-c3ccc(-c4c[nH]nn4)cc3)oc12`, for which the Ratio IC50 in series [1] was 120. The concentration for half-maximal inhibition (IC50) in series [2] worked out at 0.0478 µM; in series [3], 0.0004 µM.
For the compound `COc1ccc(OC)c2c1c(OC)cc1c(=O)cc(-c3ccccc3)oc12`, in series [1], the Ratio IC50 was determined as 18.4. In addition, the values for the IC50 in series [2] and in series [3] were 0.0258 µM and 0.0014 µM, respectively.
For the compound `COc1ccc(OC)c2c1c(OC)cc1c(=O)cc(-c3ccc(-c4cn(CCCCCOc5cccc6c5C(=O)N(C5CCC(=O)NC5=O)C6=O)nn4)cc3)oc12` (configuration not stated), the Ratio IC50 in series [1] amounted to 56.1. For the same compound, the IC50 in series [2] amounted to 8.57 µM; in series [3], 0.153 µM. Also, the result in series [4] was Active.
Regarding `COc1ccc(OC)c2c1c(OC)cc1c(=O)cc(-c3ccc(-c4cn(CCCCCCCCOc5cccc6c5C(=O)N(C5CCC(=O)NC5=O)C6=O)nn4)cc3)oc12` (configuration not stated), the Ratio IC50 in series [1] is 44.8. In addition, the IC50 came to 7.46 µM in series [2] and 0.166 µM in series [3]. Moreover, the Activity result in series [4] is on record as “Not Active”.
Regarding `[N-]=[N+]=NCCCCCOc1cccc2c1C(=O)N(C1CCC(=O)NC1=O)C2=O` (configuration not stated), the concentration for half-maximal inhibition (IC50) in series [2] and in series [3] was greater than 10 µM throughout. Also, the Activity result in series [4] is recorded as “Not Active”.
As to `[N-]=[N+]=NCCOc1cccc2c1C(=O)N(C1CCC(=O)NC1=O)C2=O` (configuration not stated), the IC50 in series [2] and in series [3] was greater than 10 µM each time.
Consider `COc1ccc(OC)c2c1c(OC)cc1c(=O)cc(-c3ccc(Cl)cc3)oc12`, for which the Ratio IC50 in series [1] worked out at 62. Besides, the 50% inhibitory concentration (IC50) in series [2] came out at 0.0372 µM; in series [3], 0.0006 µM.
For the compound `COc1ccc(OC)c2c1c(OC)cc1c(=O)cc(-c3ccc(-c4cn(CCCCCCOc5cccc6c5C(=O)N(C5CCC(=O)NC5=O)C6=O)nn4)cc3)oc12` (configuration not stated), the Ratio IC50 in series [1] was 104. Further, the IC50 in series [2] was 9.84 µM; in series [3], 0.0951 µM. The Activity result in series [4] was “Dose-dependent effect and Tde”.
With `CC(=O)O[C@@]12CO[C@@H]1C[C@H](O)[C@@]1(C)C(=O)[C@H](O)C3=C(C)[C@@H](OC(=O)[C@H](O)[C@@H](NC(=O)OC(C)(C)C)c4ccccc4)C[C@@](O)([C@@H](OC(=O)c4ccccc4)[C@H]21)C3(C)C` [DOCETAXEL ANHYDROUS], the “Ratio IC50” value in series [5] was determined as 9. Besides, the IC50 in series [6] worked out at 0.0433 µM; in series [7], 0.00495 µM.
Take `COc1ccc(OC)c2c1c(OC)cc1c(=O)cc(-c3ccc(-c4cn(CCOc5cccc6c5C(=O)N(C5CCC(=O)NC5=O)C6=O)nn4)cc3)oc12` (configuration not stated): in series [1], the Ratio IC50 is 89.2. Moreover, the IC50 in series [2] was 9.03 µM; in series [3] it was 0.101 µM. For the same compound, the result in series [4] was Active.
With `[N-]=[N+]=NCCCCCCCCOc1cccc2c1C(=O)N(C1CCC(=O)NC1=O)C2=O` (configuration not stated), the half-inhibitory concentration (IC50) in series [2] and in series [3] was greater than 10 µM throughout. Further, the Activity result in series [4] is recorded as “Not Active”.
